Results: patent publication US8791303B2, “Herbicides” (Syngenta Limited, priority 2009, dated 2014)
Each block holds one molecule with its values, some of them ahead of it.

Columns and labels:
Lolium perenne (LOLPE) [1] = assay: Example A glasshouse herbicide test, post-emergence, LOLPE; type: in vivo; conditions: Lolium perenne, post-emergence, 312 h, Rate 250 g/ha, sprayed after 8 days cultivation, evaluated after 13 days, read-out: Post-Emergence Activity LOLPE (100=total damage to plant; 0=no damage to plant)
Outline: (§1)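 Pot-grown plants sprayed 1 day (pre-emergence) or 8 days (post-emergence) after sowing with active ingredient in acetone/water (50:50) containing 0.5% Tween 20. Glasshouse conditions 24/16° C. day/night, 14 h light, 65% humidity; damage scored 13 days later on a 0 (none) to 100 (total) scale.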

[2] = test system: Alopecurus myosuroides (ALOMY); assay: Example A glasshouse herbicide test, post-emergence, ALOMY; type: in vivo; conditions: Alopecurus myosuroides, post-emergence, 312 h, Rate 250 g/ha, sprayed after 8 days cultivation, evaluated after 13 days, read-out: Post-Emergence Activity ALOMY (100=total damage to plant; 0=no damage to plant)
Outline: as §1

[3] = test system: Echinochloa crus-galli (ECHCG); assay: Example A glasshouse herbicide test, post-emergence, ECHCG; type: in vivo; conditions: Echinochloa crus-galli, post-emergence, 312 h, Rate 250 g/ha, sprayed after 8 days cultivation, evaluated after 13 days, read-out: Post-Emergence Activity ECHCG (100=total damage to plant; 0=no damage to plant)
Outline: as §1

Avena fatua (AVEFA) [4] = assay: Example A glasshouse herbicide test, post-emergence, AVEFA; type: in vivo; conditions: Avena fatua, post-emergence, 312 h, Rate 250 g/ha, sprayed after 8 days cultivation, evaluated after 13 days, read-out: Post-Emergence Activity AVEFA (100=total damage to plant; 0=no damage to plant)
Outline: as §1

Lolium perenne (LOLPE) [5] = assay: Example A glasshouse herbicide test, pre-emergence, LOLPE; type: in vivo; conditions: Lolium perenne, pre-emergence, 312 h, Rate 250 g/ha, sprayed after cultivation for one day, evaluated after 13 days, read-out: Pre-Emergence Activity LOLPE (100=total damage to plant; 0=no damage to plant)
Outline: as §1

[6] = test system: Alopecurus myosuroides (ALOMY); assay: Example A glasshouse herbicide test, pre-emergence, ALOMY; type: in vivo; conditions: Alopecurus myosuroides, pre-emergence, 312 h, Rate 250 g/ha, sprayed after cultivation for one day, evaluated after 13 days, read-out: Pre-Emergence Activity ALOMY (100=total damage to plant; 0=no damage to plant)
Outline: as §1

[7] = test system: Echinochloa crus-galli (ECHCG); assay: Example A glasshouse herbicide test, pre-emergence, ECHCG; type: in vivo; conditions: Echinochloa crus-galli, pre-emergence, 312 h, Rate 250 g/ha, sprayed after cultivation for one day, evaluated after 13 days, read-out: Pre-Emergence Activity ECHCG (100=total damage to plant; 0=no damage to plant)
Outline: as §1

Avena fatua (AVEFA) [8] = assay: Example A glasshouse herbicide test, pre-emergence, AVEFA; type: in vivo; conditions: Avena fatua, pre-emergence, 312 h, Rate 250 g/ha, sprayed after cultivation for one day, evaluated after 13 days, read-out: Pre-Emergence Activity AVEFA (100=total damage to plant; 0=no damage to plant)
Outline: as §1

[9] = test system: Winter Wheat variety 'Hereward'; assay: Example B crop damage test, post-emergence, unsafened wheat; type: in vivo; conditions: Rate 250 g/ha; post-emergence spray after 8 days cultivation; no safener; evaluated after 13 days
Outline: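 Winter wheat 'Hereward' was sprayed post-emergence 8 days after sowing, using formulated active ingredient in acetone/water (50:50) with 0.5% Tween 20. Plants grew in a glasshouse at 24/16 °C day/night, 14 h light and 65% humidity. Damage was scored 13 days later (0 = none, 100 = total).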

[10] = test system: Winter Wheat variety 'Hereward'; assay: Example B crop damage test, post-emergence, wheat seed treated with safener cloquintocet mexyl; type: in vivo; conditions: Rate 250 g/ha; post-emergence spray 8 days after sowing; seed treated with cloquintocet mexyl 0.5 g/kg dry seed; evaluated after 13 days
Outline: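 Wheat seed pre-treated with cloquintocet mexyl at 0.5 g/kg seed, sown 8 days before post-emergence spraying of compound in acetone/water (50:50) with 0.5% Tween 20. Glasshouse at 24/16° C, 14 h light, 65% humidity. Damage scored visually after 13 days, 0 (none) to 100 (total).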

melting point: 181 to 184 °C
SMILES: Cc1cc(C)cc(CC2CC(=O)C(c3c(C)cc(C)cc3C)C2=O)c1 (stereo not drawn) [Compound A21]
pest or weed control at 250 g/ha (Lolium perenne (LOLPE) [1]): 30%
pest or weed control at 250 g/ha [2]: 40%
pest or weed control at 250 g/ha [3]: 60%
pest or weed control at 250 g/ha (Avena fatua (AVEFA) [4]): 20%
pest or weed control at 250 g/ha (Lolium perenne (LOLPE) [5]): 100%
pest or weed control at 250 g/ha [6]: 60%
pest or weed control at 250 g/ha [7]: 90%
pest or weed control at 250 g/ha (Avena fatua (AVEFA) [8]): 20%
Winter Wheat (Hereward) damage (100=total damage to plant; 0=no damage to plant) [9]: 20
Winter Wheat (Hereward) + cloquintocet mexyl damage (100=total damage to plant; 0=no damage to plant) [10]: 20

melting point: 189 to 191.7 °C
SMILES: Cc1cc(C)c(C2C(=O)CC(Cc3ccc(CS(=O)(=O)c4ccccc4)cc3)C2=O)c(C)c1 (stereo not drawn) [Compound A22]
pest or weed control at 250 g/ha (Lolium perenne (LOLPE) [1]): 20%
pest or weed control at 250 g/ha [2]: 0%
pest or weed control at 250 g/ha [3]: 20%
pest or weed control at 250 g/ha (Avena fatua (AVEFA) [4]): 10%
pest or weed control at 250 g/ha (Lolium perenne (LOLPE) [5]): 20%
pest or weed control at 250 g/ha [6]: 0%
pest or weed control at 250 g/ha [7]: 30%
pest or weed control at 250 g/ha (Avena fatua (AVEFA) [8]): 0%

melting point: 235.3 to 238.6 °C
SMILES: Cc1cc(C)c(C2C(=O)CC(Cc3ccc(S(C)(=O)=O)cc3)C2=O)c(C)c1 (stereo not drawn) [Compound A23]
pest or weed control at 250 g/ha (Lolium perenne (LOLPE) [1]): 50%
pest or weed control at 250 g/ha [2]: 90%
pest or weed control at 250 g/ha [3]: 90%
pest or weed control at 250 g/ha (Avena fatua (AVEFA) [4]): 90%
pest or weed control at 250 g/ha (Lolium perenne (LOLPE) [5]): 100%
pest or weed control at 250 g/ha [6]: 90%
pest or weed control at 250 g/ha [7]: 90%
pest or weed control at 250 g/ha (Avena fatua (AVEFA) [8]): 80%
Winter Wheat (Hereward) damage (100=total damage to plant; 0=no damage to plant) [9]: 50
Winter Wheat (Hereward) + cloquintocet mexyl damage (100=total damage to plant; 0=no damage to plant) [10]: 50

melting point: 197.3 to 197.6 °C
SMILES: COc1ccc(CC2CC(=O)C(c3c(C)cc(C)cc3C)C2=O)cc1 (stereo not drawn) [Compound A24]
pest or weed control at 250 g/ha (Lolium perenne (LOLPE) [1]): 80%
pest or weed control at 250 g/ha [2]: 80%
pest or weed control at 250 g/ha [3]: 30%
pest or weed control at 250 g/ha (Avena fatua (AVEFA) [4]): 90%
pest or weed control at 250 g/ha (Lolium perenne (LOLPE) [5]): 100%
pest or weed control at 250 g/ha [6]: 90%
pest or weed control at 250 g/ha [7]: 80%
pest or weed control at 250 g/ha (Avena fatua (AVEFA) [8]): 80%
Winter Wheat (Hereward) damage (100=total damage to plant; 0=no damage to plant) [9]: 40
Winter Wheat (Hereward) + cloquintocet mexyl damage (100=total damage to plant; 0=no damage to plant) [10]: 10

The remaining lines, values behind:

SMILES: Cc1cc(C)c(C2C(=O)CC(Cc3ccccc3F)C2=O)c(C)c1 (stereo not drawn) [Compound A14]
pest or weed control at 250 g/ha (Lolium perenne (LOLPE) [1]): 90%
pest or weed control at 250 g/ha [2]: 80%
pest or weed control at 250 g/ha [3]: 80%
pest or weed control at 250 g/ha (Avena fatua (AVEFA) [4]): 30%
pest or weed control at 250 g/ha (Lolium perenne (LOLPE) [5]): 100%
pest or weed control at 250 g/ha [6]: 70%
pest or weed control at 250 g/ha [7]: 90%
pest or weed control at 250 g/ha (Avena fatua (AVEFA) [8]): 40%
Winter Wheat (Hereward) damage (100=total damage to plant; 0=no damage to plant) [9]: 30
Winter Wheat (Hereward) + cloquintocet mexyl damage (100=total damage to plant; 0=no damage to plant) [10]: 20
melting point: 197.8 to 210.2 °C

SMILES: Cc1cc(C)c(C2C(=O)CC(Cc3ccccc3C)C2=O)c(C)c1 (stereo not drawn) [Compound A15]
pest or weed control at 250 g/ha (Lolium perenne (LOLPE) [1]): 90%
pest or weed control at 250 g/ha [2]: 80%
pest or weed control at 250 g/ha [3]: 40%
pest or weed control at 250 g/ha (Avena fatua (AVEFA) [4]): 50%
pest or weed control at 250 g/ha (Lolium perenne (LOLPE) [5]): 100%
pest or weed control at 250 g/ha [6]: 70%
pest or weed control at 250 g/ha [7]: 60%
pest or weed control at 250 g/ha (Avena fatua (AVEFA) [8]): 70%
Winter Wheat (Hereward) damage (100=total damage to plant; 0=no damage to plant) [9]: 30
Winter Wheat (Hereward) + cloquintocet mexyl damage (100=total damage to plant; 0=no damage to plant) [10]: 20
melting point: 210 to 215.5 °C

SMILES: Cc1cc(C)c(C2C(=O)CC(Cc3ccccc3)C2=O)c(C)c1 (stereo not drawn) [Compound A17]
pest or weed control at 250 g/ha (Lolium perenne (LOLPE) [1]): 80%
pest or weed control at 250 g/ha [2]: 80%
pest or weed control at 250 g/ha [3]: 60%
pest or weed control at 250 g/ha (Avena fatua (AVEFA) [4]): 40%
pest or weed control at 250 g/ha (Lolium perenne (LOLPE) [5]): 90%
pest or weed control at 250 g/ha [6]: 50%
pest or weed control at 250 g/ha [7]: 70%
pest or weed control at 250 g/ha (Avena fatua (AVEFA) [8]): 30%
Winter Wheat (Hereward) damage (100=total damage to plant; 0=no damage to plant) [9]: 10
Winter Wheat (Hereward) + cloquintocet mexyl damage (100=total damage to plant; 0=no damage to plant) [10]: 10
melting point: 160 to 165 °C

SMILES: Cc1cccc(CC2CC(=O)C(c3c(C)cc(C)cc3C)C2=O)c1 (stereo not drawn) [Compound A18]
pest or weed control at 250 g/ha (Lolium perenne (LOLPE) [1]): 90%
pest or weed control at 250 g/ha [2]: 80%
pest or weed control at 250 g/ha [3]: 50%
pest or weed control at 250 g/ha (Avena fatua (AVEFA) [4]): 50%
pest or weed control at 250 g/ha (Lolium perenne (LOLPE) [5]): 100%
pest or weed control at 250 g/ha [6]: 80%
pest or weed control at 250 g/ha [7]: 100%
pest or weed control at 250 g/ha (Avena fatua (AVEFA) [8]): 50%
Winter Wheat (Hereward) damage (100=total damage to plant; 0=no damage to plant) [9]: 20
Winter Wheat (Hereward) + cloquintocet mexyl damage (100=total damage to plant; 0=no damage to plant) [10]: 10
melting point: 173 to 179 °C

SMILES: Cc1cc(C)c(C2C(=O)CC(Cc3ccc(C#N)cc3)C2=O)c(C)c1 (stereo not drawn) [Compound A19]
pest or weed control at 250 g/ha (Lolium perenne (LOLPE) [1]): 90%
pest or weed control at 250 g/ha [2]: 90%
pest or weed control at 250 g/ha [3]: 90%
pest or weed control at 250 g/ha (Avena fatua (AVEFA) [4]): 60%
pest or weed control at 250 g/ha (Lolium perenne (LOLPE) [5]): 90%
pest or weed control at 250 g/ha [6]: 80%
pest or weed control at 250 g/ha [7]: 100%
pest or weed control at 250 g/ha (Avena fatua (AVEFA) [8]): 40%
Winter Wheat (Hereward) damage (100=total damage to plant; 0=no damage to plant) [9]: 60
Winter Wheat (Hereward) + cloquintocet mexyl damage (100=total damage to plant; 0=no damage to plant) [10]: 10
melting point: 249 to 251 °C

SMILES: Cc1cc(C)c(C2C(=O)CC(Cc3cc(F)cc(F)c3)C2=O)c(C)c1 (stereo not drawn) [Compound A20]
pest or weed control at 250 g/ha (Lolium perenne (LOLPE) [1]): 50%
pest or weed control at 250 g/ha [2]: 20%
pest or weed control at 250 g/ha [3]: 50%
pest or weed control at 250 g/ha (Avena fatua (AVEFA) [4]): 30%
pest or weed control at 250 g/ha (Lolium perenne (LOLPE) [5]): 100%
pest or weed control at 250 g/ha [6]: 30%
pest or weed control at 250 g/ha [7]: 80%
pest or weed control at 250 g/ha (Avena fatua (AVEFA) [8]): 20%
Winter Wheat (Hereward) damage (100=total damage to plant; 0=no damage to plant) [9]: 10
Winter Wheat (Hereward) + cloquintocet mexyl damage (100=total damage to plant; 0=no damage to plant) [10]: 0
melting point: 193 to 193.2 °C
